Assay results as given in US20110070211A1 (priority 2009, published 2011).

Test system: DU-145 cells
Format: cell-based, Human

## C=C1[C@@H](C)[C@H]2[C@H](Cc3ccccc3)NC(=O)[C@]23[C@H](OC(C)=O)/C=C/[C@@](C)(O)C(=O)[C@@H](C)C/C=C/[C@H]3[C@@H]1O [Cytochalasin-D]
  Effect on cell migration: did not migrate
  Relative Wound Density at 24 Hours, Mean: 3.3 ± 0.2
  Relative Wound Density at 24 Hours, Percent Relative to Media: 4%
